Data published in article PMC8222713, “Variation of Two S3b Residues in KV4.1–4.3 Channels Underlies Their Different Modulations by Spider Toxin κ-LhTx-1” (Frontiers in Pharmacology, 2021).
Where a SMILES comes first, the peptide text is derived from it. Bridges are numbered along the chain shown (N, C = ends).

Experiments:
KV4.3/N278K mutant = experiment: Whole-cell patch clamp, KV4.3/N278K in CHO-K1 cells; format: cell-based, rat
Procedure: (§1) The cDNA of hKV1.1, hKV1.3, rKV1.4, hKV1.5, rKV2.1, hKV3.1–3.4, mKV4.1, rKV4.2, and rKV4.3 were subcloned in the eukaryotic expression vector pCDNA3.1 or pCMV-blank. Channel mutants were made by a site-directed mutation method. Briefly, a pair of oppositely directed primers with 15 bp overlap at their 5′ ends and the designed mutation site were used to amplify the parental channel plasmid, then the PCR mix was treated with DpnI to remove the template. 10 μL digestion mix was directly used to transform 100 μL DH5α chemical competent cells. The correct mutation made by this procedure was finally confirmed by DNA sequencing. CHO-K1 cells (ATCC® CCL-61™) were grown in DMEM-F12 mixed medium (1:1) supplemented with 10% FBS and maintained in standard conditions (saturated humidity, 37°C, 5% CO2). Channel plasmid was co-transfected with pEGFP-N1 (encodes the green fluoresence protein) into CHO-K1 cells using lipofectamine 2000 following the manufacturer’s instructions. 4–6 h after transfection, cells were seeded onto poly-lysine (PLL) coated coverslips, and 24–36 h later, transfected cells were ready for patch-clamp analysis. It should be note that KV4.2 and its mutants were also co-expressed with hKChIP1 to promote their functional expressions.
(§2) Whole-cell patch clamp recording was performed in an electrophysiology platform equipped with MultiClamp 700B amplifier and Axon Digidata 1550 AD/DA convertor (Axon Instruments, Irvine, CA, United States). Data were acquired using the pClamp software (Axon Instruments, Irvine, CA, United States). All experiments were performed at room temperature. The bath solution contains (in mM): 140 NaCl, 5 KCl, 1 MgCl2, 2 CaCl2, 10 glucose, and 10 HEPES (pH = 7.3). The pipette solution contains (in mM): 140 KCl, 2.5 MgCl2, 11 EGTA, and 10 HEPES (pH = 7.3). Series resistance was kept below 10 MΩ and compensated to 80%. The concentration–response curves were fitted by a Hill logistic equation to estimate the potency (IC50) of the toxin. The whole cell conductance (G) at each depolarizing voltage (V) was determined using the equation: G = I/(V−Vrev), where I and Vrev represents the current amplitude and the reversal potential, respectively. In the present study, Vrev for K^+ current is determined to be −85.61 mV using the Nernst equation. G-V curve was obtained by plotting the normalized G as a function of V and fitted by the Boltzmann equation: y = 1/{1 + exp [(Va−V)/K]}, in which Va, V, and K represents half-maximum activation voltage, test voltage and slope factor, respectively. The steady-state fast inactivation of KV4 channels was measured using a classical two-pulses protocol: cell was held at −120 mV, and a train of conditional voltages (−120–40 mV, in 10 mV increment, 1,000 ms) were applied to induce channel inactivation, followed by a +60 mV test pulse (300 ms) to assess the proportion of non-inactivated channels; the sweep interval was set to 10 s. Currents at the test pulse (I) were normalized to the maximum value (Imax) and plotted as a function of the conditional voltage (V), the curve was fitted by the Boltzmann equation: I/Imax = A + (1−A)/{1 + exp [(V−Vh)/K]}, where Vh is the half-maximum inactivation voltage, A represents the minimum channel availability, and K is the slope factor. Gating currents of KV4.1–4.3 channels were measured as previously reported ([Tilley et al., 2019]). Briefly, the ionic pore currents were abolished by replacing K^+ with NMDG^+ in the pipette solution, and 10 µM Cs^+ was present in the bath solution to occupy the selectivity filter of KV channels to prevent decay of the gating currents during recording.
(§3) Data were presented as MEAN ± SEM, n represents the number of separate experimental cells. Data were analyzed using the software Clampfit 10.5 (Axon Instruments, Irvine, CA, United States), Graphpad Prism 5.01 (GraphPad Software, La Jolla, CA, United States) and Excel 2010 (Microsoft Corporation, Redmond, WA, United States). […]

KV3.4 channel (hKV3.4) = experiment: Whole-cell patch clamp selectivity, KV3.4; format: cell-based, human; details: KV3.4, 10 µM, n = 5
Procedure: (§4) The cDNA of hKV1.1, hKV1.3, rKV1.4, hKV1.5, rKV2.1, hKV3.1–3.4, mKV4.1, rKV4.2, and rKV4.3 were subcloned in the eukaryotic expression vector pCDNA3.1 or pCMV-blank. Channel mutants were made by a site-directed mutation method. Briefly, a pair of oppositely directed primers with 15 bp overlap at their 5′ ends and the designed mutation site were used to amplify the parental channel plasmid, then the PCR mix was treated with DpnI to remove the template. 10 μL digestion mix was directly used to transform 100 μL DH5α chemical competent cells. The correct mutation made by this procedure was finally confirmed by DNA sequencing. […] 4–6 h after transfection, cells were seeded onto poly-lysine (PLL) coated coverslips, and 24–36 h later, transfected cells were ready for patch-clamp analysis. […]
(§5) Whole-cell patch clamp recording was performed in an electrophysiology platform equipped with MultiClamp 700B amplifier and Axon Digidata 1550 AD/DA convertor (Axon Instruments, Irvine, CA, United States). […] The whole cell conductance (G) at each depolarizing voltage (V) was determined using the equation: G = I/(V−Vrev), where I and Vrev represents the current amplitude and the reversal potential, respectively. In the present study, Vrev for K^+ current is determined to be −85.61 mV using the Nernst equation. […] Gating currents of KV4.1–4.3 channels were measured as previously reported ([Tilley et al., 2019]). […]

KV4.1/279LF/AA mutant = experiment: Whole-cell patch clamp, KV4.1/279LF/AA in CHO-K1 cells; format: cell-based, mouse; details: KV4.1/279LF/AA at Va depolarizing voltage, n = 5–7
Procedure: as §4, §5

KV4.1 channel (mKV4.1) = target: T1, KV4.1 channel (mKV4.1) (Mus musculus, UniProt Q03719); experiment: Whole-cell patch clamp, KV4.1 in CHO-K1 cells; format: cell-based
T1 construct: expressed in transfected cells; host or cells: CHO-K1 (transient, co-transfected with pEGFP-N1)
T1 sequence (Q03719 1-651): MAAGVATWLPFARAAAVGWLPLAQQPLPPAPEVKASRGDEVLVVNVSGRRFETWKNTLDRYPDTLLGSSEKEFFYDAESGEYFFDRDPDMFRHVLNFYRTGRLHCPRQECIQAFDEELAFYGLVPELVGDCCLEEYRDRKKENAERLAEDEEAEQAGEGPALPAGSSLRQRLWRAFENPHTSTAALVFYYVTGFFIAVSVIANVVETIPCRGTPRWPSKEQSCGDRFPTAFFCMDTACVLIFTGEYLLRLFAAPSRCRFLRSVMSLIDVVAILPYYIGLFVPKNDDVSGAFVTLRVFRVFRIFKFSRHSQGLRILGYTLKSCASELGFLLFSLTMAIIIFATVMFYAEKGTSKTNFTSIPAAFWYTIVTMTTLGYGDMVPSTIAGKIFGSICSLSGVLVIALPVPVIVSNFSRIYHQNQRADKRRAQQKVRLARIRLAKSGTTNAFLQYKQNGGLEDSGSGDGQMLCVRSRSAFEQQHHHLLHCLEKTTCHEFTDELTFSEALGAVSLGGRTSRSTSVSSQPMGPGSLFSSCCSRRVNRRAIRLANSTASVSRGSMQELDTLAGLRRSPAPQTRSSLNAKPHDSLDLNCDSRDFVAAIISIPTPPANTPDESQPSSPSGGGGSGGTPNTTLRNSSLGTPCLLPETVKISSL
Procedure: as §1, §2, §3

[1] = 10 μM κ-LhTx-1, G-V, mean ± SEM, n = 6
[2] = 10 μM κ-LhTx-1, two-pulse protocol, mean ± SEM, n = 5
[3] = 10 μM κ-LhTx-1, KV4.1, two-pulse protocol, mean ± SEM, n = 5

For `CC[C@H](C)[C@@H]1NC(=O)[C@H](CCC(N)=O)NC(=O)[C@@H]2CSSC[C@@H]3NC(=O)[C@H](CC(C)C)NC(=O)[C@H](CC(N)=O)NC(=O)[C@H](CCSC)NC(=O)[C@H](Cc4c[nH]c5ccccc45)NC(=O)[C@H](CO)NC(=O)[C@H](C)NC(=O)[C@@H](NC(=O)[C@H](CCC(=O)O)NC(=O)[C@H](CCC(N)=O)NC(=O)[C@H](C)NC(=O)[C@H](CC(=O)O)NC(=O)[C@@H](N)CCC(=O)O)CSSC[C@H](NC(=O)[C@H](CSSC[C@@H](C(=O)N[C@@H](CCCCN)C(=O)N[C@@H](Cc4ccc(O)cc4)C(=O)N[C@@H](CCCCN)C(=O)N[C@@H](CC(C)C)C(N)=O)NC(=O)[C@H](Cc4c[nH]c5ccccc45)NC1=O)NC(=O)[C@H](CCCCN)NC(=O)[C@H](CCCCN)NC(=O)[C@H](CCC(=O)O)NC(=O)CNC3=O)C(=O)N[C@@H](CCC(=O)O)C(=O)NCC(=O)N[C@@H](Cc1ccc(O)cc1)C(=O)N[C@@H](C(C)C)C(=O)N2` [κ-LhTx-1] (H-EDAQECASWMNLCGEKKCCEGYVCQIWCKYKL-NH2; disulfide 6-19, 13-24, 18-28 (inferred); N-terminus and C-terminus assumed), the “Va (steady-state activation)” value (KV4.3/N278K mutant; [1]) was 68.62 ± 1.73 mV, the “k, slope factor (steady-state activation)” value (KV4.3/N278K mutant; [1]) was 18.03 ± 0.87 mV and the “Vh (steady-state inactivation)” value (KV4.3/N278K mutant; [2]) was -17.01 ± 1.57 mV. The “k, slope factor (steady-state inactivation)” value (KV4.3/N278K mutant; [2]) was 10.75 ± 0.63 mV, the “voltage-dependence of inhibition vs parental KV4.3” value (KV4.3/N278K mutant; 10 μM, still greater than in KV4.1) was “much less voltage-dependence” and the “∆Va (steady-state activation)” value (KV4.3/N278K mutant; Va shift by 10 μM κ-LhTx-1 vs control, mean ± SEM) was 59.97 ± 2.64 mV. The “∆Vh (steady-state inactivation)” value (KV4.3/N278K mutant; Vh shift by 10 μM κ-LhTx-1 vs control, mean ± SEM) was 30.24 ± 1.80 mV, the effect on currents (KV3.4 channel (hKV3.4)) was “did not remarkably affect the currents” and the “effect of mutation on toxin inhibition” value (KV4.1/279LF/AA mutant) was “profoundly weakened the effect”. The “Va (steady-state activation)” value (KV4.1 channel (mKV4.1); 10 μM κ-LhTx-1, KV4.1, Boltzmann fit of G-V curve, mean ± SEM, n = 5) was 95.20 ± 1.68 mV, the “k, slope factor (steady-state activation)” value (KV4.1 channel (mKV4.1); 10 μM κ-LhTx-1, KV4.1, G-V, mean ± SEM, n = 5) was 16.14 ± 1.78 mV and the “Vh (steady-state inactivation)” value (KV4.1 channel (mKV4.1); [3]) was -32.48 ± 3.44 mV. For the same molecule, the “k, slope factor (steady-state inactivation)” value (KV4.1 channel (mKV4.1); [3]) was 22.88 ± 0.19 mV, the reversibility of inhibition (KV4.1 channel (mKV4.1); KV4.1) was “in a reversible manner” and the voltage-dependence of inhibition (KV4.1 channel (mKV4.1); KV4.1, 10 µM, inhibition ratio at each depolarizing voltage, n = 5–8) was “affected by voltage to a much less extent”. For the same molecule, the “I-V: current inhibition below +60 mV” value (KV4.1 channel (mKV4.1); KV4.1, 10 µM, n = 5–8) was “fully inhibited the currents at voltages below +60 mV”, the “I-V: reopening of toxin-bound channels” value (KV4.1 channel (mKV4.1); KV4.1, 10 µM, strong depolarization, n = 5–8) was “only depolarizations stronger than +70 mV could partially reopen the toxin-bound channels” and the maximum inhibition (KV4.1 channel (mKV4.1); KV4.1, saturating dose 10 μM, +30 mV) was “fully inhibit”. For the same molecule, the “current inhibition at Va” value (KV4.1 channel (mKV4.1); KV4.1 at Va depolarizing voltage) was “almost fully inhibited”, the “∆Va (steady-state activation)” value (KV4.1 channel (mKV4.1); Va shift by 10 μM κ-LhTx-1 vs control, KV4.1, mean ± SEM) was 98.28 ± 2.66 mV and the “∆Vh (steady-state inactivation)” value (KV4.1 channel (mKV4.1); Vh shift by 10 μM κ-LhTx-1 vs control, KV4.1, mean ± SEM) was 29.27 ± 2.05 mV.
